Data as given in PubChem BioAssay AID1259407 (Chemical Carcinogenesis Research Information System (CCRIS), 2018).
Activity calls are given as the source filed them. No rule for the calls is given here.

Tested on: CCRIS mutagenicity, Ames/micronucleus/aberration tests
Test: CCRIS mutagenicity studies

Measured: mutagenic call

CCCCCCC=O
inactive: Test System: AMES SALMONELLA TYPHIMURIUM, Strain/Indicator: TA97, Metabolic Activation: HAMSTER, LIVER, S-9, AROCLOR 1254 (10%), Method: PREINCUBATION inactive; negative | Test System: AMES SALMONELLA TYPHIMURIUM, Strain/Indicator: TA97, Metabolic Activation: HAMSTER, LIVER, S-9, AROCLOR 1254 (30%), Method: PREINCUBATION inactive; negative | Test System: AMES SALMONELLA TYPHIMURIUM, Strain/Indicator: TA97, Metabolic Activation: NONE, Method: PREINCUBATION inactive; negative | Test System: AMES SALMONELLA TYPHIMURIUM, Strain/Indicator: TA97, Metabolic Activation: RAT, LIVER, S-9, AROCLOR 1254 (10%), Method: PREINCUBATION inactive; negative | Test System: AMES SALMONELLA TYPHIMURIUM, Strain/Indicator: TA97, Metabolic Activation: RAT, LIVER, S-9, AROCLOR 1254 (30%), Method: PREINCUBATION inactive; negative | Test System: AMES SALMONELLA TYPHIMURIUM, Strain/Indicator: TA98, Metabolic Activation: HAMSTER, LIVER, S-9, AROCLOR 1254 (10%), Method: PREINCUBATION inactive; negative | Test System: AMES SALMONELLA TYPHIMURIUM, Strain/Indicator: TA98, Metabolic Activation: HAMSTER, LIVER, S-9, AROCLOR 1254 (30%), Method: PREINCUBATION inactive; negative | Test System: AMES SALMONELLA TYPHIMURIUM, Strain/Indicator: TA98, Metabolic Activation: NONE, Method: PREINCUBATION inactive; negative | Test System: AMES SALMONELLA TYPHIMURIUM, Strain/Indicator: TA98, Metabolic Activation: RAT, LIVER, S-9, AROCLOR 1254 (10%), Method: PREINCUBATION inactive; negative | Test System: AMES SALMONELLA TYPHIMURIUM, Strain/Indicator: TA98, Metabolic Activation: RAT, LIVER, S-9, AROCLOR 1254 (30%), Method: PREINCUBATION inactive; negative | Test System: AMES SALMONELLA TYPHIMURIUM, Strain/Indicator: TA100, Metabolic Activation: HAMSTER, LIVER, S-9, AROCLOR 1254 (10%), Method: PREINCUBATION inactive; negative | Test System: AMES SALMONELLA TYPHIMURIUM, Strain/Indicator: TA100, Metabolic Activation: HAMSTER, LIVER, S-9, AROCLOR 1254 (30%), Method: PREINCUBATION inactive; negative | Test System: AMES SALMONELLA TYPHIMURIUM, Strain/Indicator: TA100, Metabolic Activation: NONE, Method: PREINCUBATION inactive; negative | Test System: AMES SALMONELLA TYPHIMURIUM, Strain/Indicator: TA100, Metabolic Activation: RAT, LIVER, S-9, AROCLOR 1254 (10%), Method: PREINCUBATION inactive; negative | Test System: AMES SALMONELLA TYPHIMURIUM, Strain/Indicator: TA100, Metabolic Activation: RAT, LIVER, S-9, AROCLOR 1254 (30%), Method: PREINCUBATION inactive; negative | Test System: AMES SALMONELLA TYPHIMURIUM, Strain/Indicator: TA1535, Metabolic Activation: HAMSTER, LIVER, S-9, AROCLOR 1254 (10%), Method: PREINCUBATION inactive; negative | Test System: AMES SALMONELLA TYPHIMURIUM, Strain/Indicator: TA1535, Metabolic Activation: HAMSTER, LIVER, S-9, AROCLOR 1254 (30%), Method: PREINCUBATION inactive; negative | Test System: AMES SALMONELLA TYPHIMURIUM, Strain/Indicator: TA1535, Metabolic Activation: NONE, Method: PREINCUBATION inactive; negative | Test System: AMES SALMONELLA TYPHIMURIUM, Strain/Indicator: TA1535, Metabolic Activation: RAT, LIVER, S-9, AROCLOR 1254 (10%), Method: PREINCUBATION inactive; negative | Test System: AMES SALMONELLA TYPHIMURIUM, Strain/Indicator: TA1535, Metabolic Activation: RAT, LIVER, S-9, AROCLOR 1254 (30%), Method: PREINCUBATION inactive; negative | Test System: AMES SALMONELLA TYPHIMURIUM, Strain/Indicator: TA1537, Metabolic Activation: HAMSTER, LIVER, S-9, AROCLOR 1254 (30%), Method: PREINCUBATION inactive; negative | Test System: AMES SALMONELLA TYPHIMURIUM, Strain/Indicator: TA1537, Metabolic Activation: NONE, Method: PREINCUBATION inactive; negative | Test System: AMES SALMONELLA TYPHIMURIUM, Strain/Indicator: TA1537, Metabolic Activation: RAT, LIVER, S-9, AROCLOR 1254 (30%), Method: PREINCUBATION inactive; negative

CN(C)C(=O)c1nc(CNC(=O)CN)n(-c2ccc(Cl)cc2C(=O)c2ccccc2Cl)n1
inactive: Test System: AMES SALMONELLA TYPHIMURIUM, Strain/Indicator: TA98, Metabolic Activation: NONE, Method: STANDARD PLATE inactive; negative | Test System: AMES SALMONELLA TYPHIMURIUM, Strain/Indicator: TA98, Metabolic Activation: RAT, LIVER, S-9, AROCLOR 1254, Method: STANDARD PLATE inactive; negative | Test System: AMES SALMONELLA TYPHIMURIUM, Strain/Indicator: TA100, Metabolic Activation: NONE, Method: STANDARD PLATE inactive; negative | Test System: AMES SALMONELLA TYPHIMURIUM, Strain/Indicator: TA100, Metabolic Activation: RAT, LIVER, S-9, AROCLOR 1254, Method: STANDARD PLATE inactive; negative | Test System: AMES SALMONELLA TYPHIMURIUM, Strain/Indicator: TA102, Metabolic Activation: NONE, Method: STANDARD PLATE inactive; negative | Test System: AMES SALMONELLA TYPHIMURIUM, Strain/Indicator: TA102, Metabolic Activation: RAT, LIVER, S-9, AROCLOR 1254, Method: STANDARD PLATE inactive; negative | Test System: AMES SALMONELLA TYPHIMURIUM, Strain/Indicator: TA1535, Metabolic Activation: NONE, Method: STANDARD PLATE inactive; negative | Test System: AMES SALMONELLA TYPHIMURIUM, Strain/Indicator: TA1535, Metabolic Activation: RAT, LIVER, S-9, AROCLOR 1254, Method: STANDARD PLATE inactive; negative | Test System: AMES SALMONELLA TYPHIMURIUM, Strain/Indicator: TA1537, Metabolic Activation: NONE, Method: STANDARD PLATE inactive; negative | Test System: AMES SALMONELLA TYPHIMURIUM, Strain/Indicator: TA1537, Metabolic Activation: RAT, LIVER, S-9, AROCLOR 1254, Method: STANDARD PLATE inactive; negative | Test System: E. COLI, Strain/Indicator: WP2 UVRA, Metabolic Activation: NONE, Method: STANDARD PLATE inactive; negative | Test System: E. COLI, Strain/Indicator: WP2 UVRA, Metabolic Activation: RAT, LIVER, S-9, AROCLOR 1254, Method: STANDARD PLATE inactive; negative
